Laboratory results: PMC12655338, “Reversing the Warburg Effect: YW3-56 Induces Leukemia Differentiation via AKT-Mediated Glucose Metabolic Reprogramming” (Pharmaceuticals, 2025)

Target: T1, PAD4 (Protein arginine deiminase 4) (Homo sapiens, UniProt Q9UM07)
T1 construct: gene PADI4
Assay: colorimetric PAD4 enzyme assay, citrullination of BAEE
Format: biochemical

T1 sequence (Q9UM07 whole entry): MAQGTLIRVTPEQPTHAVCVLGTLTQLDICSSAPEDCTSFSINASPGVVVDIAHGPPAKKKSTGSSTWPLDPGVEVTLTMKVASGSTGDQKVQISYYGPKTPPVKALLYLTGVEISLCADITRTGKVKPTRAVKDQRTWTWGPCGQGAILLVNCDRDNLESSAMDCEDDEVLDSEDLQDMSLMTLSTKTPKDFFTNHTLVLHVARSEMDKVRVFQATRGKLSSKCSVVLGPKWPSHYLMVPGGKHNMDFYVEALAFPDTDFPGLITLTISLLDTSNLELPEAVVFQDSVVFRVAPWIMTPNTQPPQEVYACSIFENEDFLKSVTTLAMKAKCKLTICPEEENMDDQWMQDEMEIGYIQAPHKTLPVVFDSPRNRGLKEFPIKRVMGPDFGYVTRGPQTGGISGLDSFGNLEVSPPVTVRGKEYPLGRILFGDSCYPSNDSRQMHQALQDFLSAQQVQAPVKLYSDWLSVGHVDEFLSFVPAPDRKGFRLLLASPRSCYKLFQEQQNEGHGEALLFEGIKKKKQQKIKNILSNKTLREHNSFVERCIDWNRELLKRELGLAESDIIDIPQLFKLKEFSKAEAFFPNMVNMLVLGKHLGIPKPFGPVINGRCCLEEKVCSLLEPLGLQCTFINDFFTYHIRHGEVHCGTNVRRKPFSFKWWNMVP

## CN(C)c1ccc2cc(C(=O)N[C@@H](CCCNC(=N)CCl)C(=O)NCc3ccccc3)ccc2c1 [YW3-56]
  IC50: 4.1 ± 0.28 µM
